The target in the test is Glutamate [NMDA] receptor. Description: The compound was tested for its ability to block PCP N-methyl-D-aspartate glutamate receptor at the PCP (phencyclidine) binding site in postmortem human frontal cortex.

In the case of `NCCCC12CC3CC(CC(C3)C1)C2`, the Ki was determined as 9.5 µM.

Compound `CN(C)C12CC3CC(C)(CC(C)(C3)C1)C2` came in with a Ki of 4.44 µM.

Consider `CC12CC3CC(C)(C1)CC(CCN)(C3)C2`, for which the affinity, expressed as Ki, was 0.79 µM.

As to `CCC12CC3CC(N)(C1)CC(c1ccccc1)(C3)C2` (stereo not drawn), the Ki is 4.08 µM.

For `CN(C)C12CC3CC(CC(C3)C1)C2`, the Ki came out at 20.8 µM.

In turn, `CCNC12CC3CC(C)(CC(C)(C3)C1)C2` displayed a Ki of 1.72 µM.

As for `CCC12CC3CC(CC(N)(C3)C1)C2`, the Ki is 0.6 µM.

`CC(C)C12CC3CC(CC(N)(C3)C1)C2` returned a Ki of 7.21 µM.

`NCC12CC3CC(CC(C3)C1)C2` returned a Ki of 33.3 µM.

In turn, `CNC12CC3CC(C)(CC(C)(C3)C1)C2` had a Ki of 1.61 µM.

Consider `NC12CC3CC(C1)CC(c1ccccc1)(C3)C2`, for which the Ki was found to be 15.2 µM.

In turn, `NCCC12CC3CC(CC(C3)C1)C2` returned a Ki of 3.8 µM.

`CCC12CC3CC(N)(C1)CC(CC)(C3)C2`: affinity was put at a Ki of 0.19 µM.

In turn, `NCCCCC12CC3CC(CC(C3)C1)C2` yielded a Ki of 17.4 µM.

The compound `CNC12CC3CC(CC(C3)C1)C2` came in with a Ki of 21.7 µM.

Regarding `CNC1(c2ccccc2Cl)CCCCC1=O` (racemic) [KETAMINE], the Ki worked out at 0.42 µM.

As to `OC(CCN1CCCC1)(c1ccccc1)C1CCCCC1` (racemic) [PROCYCLIDINE], the Ki worked out at 1.7 µM.

In turn, `NC12CC3CC(CC(C3)C1)C2` [AMANTADINE] returned a Ki of 10.5 µM.

Consider `CC(C)(C)N1CCC(c2ccccc2)(c2ccccc2)CC1` [BUDIPINE], for which affinity was put at a Ki of 11.7 µM.

As to `COc1ccc2c(c1)[C@]13CCCC[C@@H]1[C@H](C2)N(C)CC3` [DEXTROMETHORPHAN], affinity was put at a Ki of 1.68 µM.

Consider `CN1CC[C@@]23CCCC[C@@H]2[C@@H]1Cc1ccc(O)cc13` [DEXTRORPHAN], for which the Ki worked out at 0.22 µM.

Turning to `Cc1ccccc1C(OCCN(C)C)c1ccccc1` (stereo not drawn) [ORPHENADRINE], affinity was put at a Ki of 6 µM.

Regarding `c1ccc(C2(N3CCCCC3)CCCCC2)cc1` [PHENCYCLIDINE], the affinity corresponds to a Ki of 0.023 µM.

What is called Ki is the equilibrium dissociation constant of an inhibitor or competing ligand from its target. A higher Ki goes with a looser hold on the target.

Source of the values: ChEMBL document CHEMBL1131462, “Quantitative analysis of the structural requirements for blockade of the N-methyl-D-aspartate receptor at the phencyclidine binding site” (J Med Chem, 1998).
